We go through two compounds from US12310980B2, “Synthesis of a potent aromatase inhibitor 17α-acetoxy-10β,11β-dihydroxy-progesterone for the treatment of ER+ breast cancer” (priority 2023, dated 2025).

Usually IC50 stands for the concentration that inhibits the measured activity by half.

One series concerns the target T1, human aromatase (Homo sapiens, UniProt P11511).
T1 construct: containing protein (2 mg) from human placental microsomes; from tissue; host or cells: human placenta (microsomes)
T1 sequence (P11511 1-503): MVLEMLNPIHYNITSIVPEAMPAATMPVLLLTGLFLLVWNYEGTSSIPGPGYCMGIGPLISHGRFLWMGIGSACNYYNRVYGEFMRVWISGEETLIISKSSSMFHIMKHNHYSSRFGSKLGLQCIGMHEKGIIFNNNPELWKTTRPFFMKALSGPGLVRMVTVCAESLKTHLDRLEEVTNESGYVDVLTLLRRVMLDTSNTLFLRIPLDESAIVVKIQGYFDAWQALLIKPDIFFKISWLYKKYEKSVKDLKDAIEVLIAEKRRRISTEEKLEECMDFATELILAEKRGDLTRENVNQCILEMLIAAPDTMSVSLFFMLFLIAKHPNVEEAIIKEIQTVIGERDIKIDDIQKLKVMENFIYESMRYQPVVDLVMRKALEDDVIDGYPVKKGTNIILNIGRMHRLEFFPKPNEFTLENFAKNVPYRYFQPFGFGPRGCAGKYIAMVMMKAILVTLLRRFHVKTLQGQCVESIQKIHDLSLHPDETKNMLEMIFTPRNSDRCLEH
In words: UPLC-based aromatase inhibition assay. It is filed as biochemical.

In the next series the test system is ovulation. The following applies: oral dosage of 10 mg/day in combination with 50 μg/day ethinylestradiol; cited from earlier work.
Series [1] relates to human fibroblast cell line. In words: cytotoxicity against human fibroblast cell line.

Where two headings read alike, the source gives them in different places.

In the case of `CC(=O)O[C@]1(C(C)=O)CC[C@H]2[C@@H]3CCC4=CC(=O)CC[C@@H]4[C@H]3CC[C@@]21C` [Compound 1, 17α-acetoxy-19-nor-progesterone], the IC50 on human aromatase (in vitro, human placental microsomes, testosterone substrate, read-out: aromatase inhibition IC50) turned out to be 740 ± 24.1 nM. Moreover, the inhibition of ovulation result with ovulation is “inhibit ovulation”.
At human aromatase, `CC(=O)O[C@]1(C(C)=O)CC[C@H]2[C@@H]3CCC4=CC(=O)CC[C@]4(O)[C@H]3[C@@H](O)C[C@@]21C` [Compound 2, 17α-Acetoxy-10β,11β-dihydroxy-progesterone] yielded an IC50 of 827 ± 66 nM. Further, the cytotoxicity result in series [1] is on record as “non-cytotoxic”.
